Test results from patent US20100279942A1, “METHODS FOR TREATING MOTOR NEURON DISEASE” (priority 2004, published 2010).
Several values for one entry are separate records, joined by “and”; a condition that tells them apart may be missing. Equal values may be shown once. Entries after “also recorded” stand apart in the source; their conditions may differ. Ends that are not written are not given here.

Experiments:
SOD1 proteins = assay: Immunoblot analysis of SOD1 protein expression in transformed cells; assay type: cell-based, mouse and rat/mouse hybrid; conditions: ADNF treatment; F11 and NSC34 cells
Description: Immunoblot analysis was conducted according to the previous report (Hashimoto Y, et al., supra, p. 6336-6341). To examine the protein expression of wild-type or SOD1 mutant genes, lysates from the cells transfected with each SOD1 gene were subjected to SDS-PAGE (20 μg/lane). After electrical blotting to a PVDF membrane, the membrane was blocked by a typical method and reacted with an anti-SOD1 antibody and then with a 1:5000-diluted horseradish peroxidase-conjugated anti-mouse IgG antibody (Bio-Rad Lab. Hercules, Calif., USA). The antibody-reactive bands were detected by ECL (Amersham Pharmacia Biotech, Uppsala, Sweden).

[1] = system: F11 cells transformed with SOD1 mutant (A4T-SOD1, G85R-SOD1, G93R-SOD1) genes; assay: Neuronal cell death test, Trypan blue exclusion assay, F11 cells transformed with SOD1 mutant genes; assay type: cell-based, rat/mouse hybrid cell
Description: F11 cell, the hybrid cell of rat embryonic day 13 (E13) primary cultured neuronal cell with mouse neuroblastoma NTG18 cell, was cultured in Ham's F-12 medium (Life Technologies, Gaithersburg, Md.) containing 18% FBS (Hyclone, Logan, Utah) and antibiotics as previously reported (Platika D, et al., 1985, Proc Natl Acad Sci USA 82: 3499-3503; Yamatsuji T, et al., 1996, Science 272: 1349-1352; Huang P, et al., 2000, Mol Hum Reprod 6: 1069-1078; and Niikura T, et al., 2001, J Neuroscience, 21: 1902-1910).
The F11 cells (7×10^4 cells/well, 6-well plate, 12- to 16-hour culture in Ham's F-12 (18% PBS) medium) were transformed with wild-type or SOD1 mutant (A4T, G85R, and G93R) genes by lipofection (0.5 μg of each SOD1 gene; 1 μl of LipofectAMINE; 2 μl of PLUS Reagent) under serum-free conditions for 3 hours and cultured for 2 hours in Ham's F-12 (18% PBS) medium. The medium was replaced by Ham's F-12 (10% PBS) in the presence or absence of ADNF. After 72 hours of the transformation, cell mortality was measured by Trypan blue exclusion assay as previously reported (Hashimoto Y, et al., 2001, J Neurosci 21: 9235-9245; and Hashimoto Y, et al, 2001, Proc Natl Acad Sci USA 98: 6336-6341). […]
Intracellular signaling by ADNF was examined. F11 cells were transformed with pEF-BOS or SOD1 mutant (A4T-SOD1, G85R-SOD1, or G93R-SOD1) cDNA and reacted with 10 nM wortmannin (PI3 kinase inhibitor), 100 μM genistein (tyrosine kinase inhibitor), 50 μM PD98059 (MEK inhibitor), 20 μM SB203580 (p38 MAPK inhibitor), 1 μM AG490 (JAK kinase inhibitor), 5 μM KN93 (calcium/calmodulin-dependent kinase inhibitor), or 10 μM HA1004 (protein kinase A inhibitor) in the presence or absence of 100 nM ADNF. After 72 hours of the transformation, cell mortality was measured by Trypan blue exclusion assay.
The effect of KN93 on the neuroprotective action of ADNF was examined. […] After 72 hours of the transformation, cell mortality was measured by Trypan blue exclusion assay. […]

G93A-SOD1 Tg mice = assay: Motor performance (rotarod), disease onset and survival in G93A-SOD1 Tg mice; assay type: in vivo, mouse
Text: Transgenic (Tg) mice (hereinafter, referred to as “G93A-SOD1 Tg mice”) expressing human FALS-associated SOD1 mutant gene with a mutation (G93A) from Gly to Ala at 93 position are the best-established mouse model of ALS (Gurney M E, et al., 1994, Science 264: 1772-1775; and Gurney M E, et al., 1997, J Neurol Sci 152 Suppl 1: S67-73). The G93A-SOD1 Tg mice manifest symptoms quite similar to human ALS after normal birth and rapidly result in death in all cases. The G93A-SOD1 Tg mice, which have the onset of the regression of motor neurons similar clinically and pathologically to that in human ALS, have been known so far to be the most excellent model of ALS throughout the world and employed for identifying effective candidate agents for ALS patients.
The model mice were used to confirm the in vivo effect of ADNF on neurotoxicity induced by G93A-SOD1.
The G93A-SOD 1 Tg mice were purchased from Jackson Laboratories (Bar Harbor, Me.). The G93A-SOD1 Tg mice were kept as hemizygote mice by the mating thereof with C57BL/6J mice (CLEA Japan, Inc). The mice were raised in a SPF room (specific pathogen-free animal facility; 23±1° C., 55±5% humidity) in the 12-hour light/[…] (7:00 AM-7:00 PM). The mice were freely fed with gamma ray-irradiated Picolab Rodent Diet 20 (PMI Feeds Inc. St. Louis, Mo.) and sodium hyposulfite (5 ppm)-containing aseptic deionized distilled water.
The G93A-SOD1 Tg mice at 10 weeks of age were put under anesthesia by the intraperitoneal injection of 10% sodium pentobarbital (60 mg/kg). A hole was made on the cranial bone with a drill on the operating table of a stereotactic instrument to aseptically transplant the C315GS-4 cannula system for mouse (Plastics One Inc., Roanoke, Va.) to the mouse left cerebral ventricle. The cannula was fixed with a surgical adhesive and dental cement. The mice at 80 days of age were divided at random to a saline (control)-administered group (n=8) and an ADNF-administered group (n=11), and 3 μl of saline and 3 μl of 30 nmol ADNF were intracerebroventricularly (icv) injected each day to the former and the latter groups, respectively, until the end of the experiment. The injection was performed with the cannula in C3151S-4 connected to Hamilton syringe through a cannula tube (C232, PE50/Thin wall, Plastic One).
The motor function (motor performance) was evaluated weekly with a rotarod (CLEA Japan Inc). After the cannulation, the mice were acclimated to the rotarod for 2 days. The mice were placed onto a rotating rod moving at 5 rpm, and the time for which each mouse could remain on the rod was automatically detected. The test was conducted according to the protocol wherein the test was completed as a score of 7 minutes if the mouse remained on the rod for 7 minutes (Li M, et al., 2000, Science 288: 335-339; and Kaspar B K, et al., 2003, Science 301: 839-842). Disease onset was defined as the first day when the mouse could not remain on the rotarod for 7 minutes.
Death was defined when the mouse was unable to right itself within 30 seconds after being placed on its back (Li M, et al., supra).

[2] = system: neuronal cell death caused by amyloid β; conditions: cited from earlier work

SALLRSIPA [ADNF, short peptide consisting of nine amino acid residues]
SOD1 gene expression levels (SOD1 proteins): not affected | cell death inhibition ([1]; 10 aM ADNF, three SOD1 mutant genes, 72 hours): hardly exhibited cell death inhibition | cell mortality induced by SOD1 mutant genes ([1]; 100 fM ADNF, A4T-, G85R-, G93R-SOD1, 72 hours after transformation): completely decreased cell mortalities induced by these three types of SOD1 mutant genes to the level of the control | protective action on cell death caused by SOD1 mutant genes ([1]; ADNF at concentrations equal to or above 10 nM): complete protective action | disease onset versus saline-administered group (G93A-SOD1 Tg mice; 30 nmol ADNF icv each day): prone to be delayed; also recorded: no significant difference | survival rate versus ALS control mice (G93A-SOD1 Tg mice; 30 nmol ADNF icv each day): no difference | Survival days (G93A-SOD1 Tg mice; 30 nmol ADNF icv each day, n = 11): 155.3 ± 3.7 days and 155.3 ± 2.2 days | Disease onset days (G93A-SOD1 Tg mice; 30 nmol ADNF icv each day, n = 11, onset = first day unable to remain on rotarod for 7 minutes): 127.3 ± 2.6 days | motor performance (rotarod) versus control mice (G93A-SOD1 Tg mice; Week 16, 30 nmol ADNF icv each day from 80 days of age): significantly better than that of the control mice | motor performance (rotarod) versus control mice (G93A-SOD1 Tg mice; Week 18 to Week 20, 30 nmol ADNF icv each day): this difference between the control mice and the ADNF-treated mice disappeared | neuroprotective action at high concentration ([2]; ADNF at or above 10 nM, Brenneman et al.): lose its neuroprotective action | inhibitory activity against cell death caused by amyloid β toxicity- or APP mutant gene-induced disorders ([2]; ADNF at or above nM levels, Hashimoto et al. 2001): reduced inhibitory activity
